Measured values: patent US5626867A, “Liposomes with a negative excess charge” (Max-Planck Gesellschaft zur Forderung der Wissenschaften …, priority 1992, dated 1997)

Experiments:
[1] = clinical use; cited from earlier work
in vivo [2] = assay: in vivo; set-up: species or system NMR-I mice; settings: mouse, iv, 5.7 mg/kg
Experimental: Each treatment group was composed of 3 animals. […] The plasma samples were analyzed by the procedure of Mross et al., (J. Chromatograph. 530 (1990), 192-199). […] The columns were dried for 10 minutes at 10 mbar. […] The residue was taken up in 50 μl (0.02 mol/l Na phosphate/acetonitrile, pH 3.9; 7:3, v/v) and analyzed by means of HPLC using a 4.6 mm×25 cm Merck Lichrocart C 18 RP 5 μm column. The flow rate was 1.5 ml/min. The excitation wavelength was 480 nm and the emission wavelength was 580 nm.

in vivo [3] = settings: mouse, iv, 5.7 mg/kg
Experimental: Female NMR-I mice (28-32 g, 6-8 weeks) were obtained from the Animal Breeding Institute, Hannover Germany. The same doses (5.7 mg/kg) were injected in each case into the cordal vein of the mice. Each treatment group was composed of 3 animals. After 1, 24 and 72 hours the mice were anaesthetized with CO2. Blood was collected from the mice by puncture of the heart and stored in heparinized Eppendorf vessels. Tissue samples from the mice (liver, heart etc.) were rinsed in 0.9% NaCl solution and stored at -70° C.
In order to detect doxorubicin and its metabolites in the individual organs, the tissue samples (about 200 mg in each case) were homogenized with a micro-dismembrator (Braun Melsungen AG, Germany). Doxorubicin and its metabolites were treated with an extraction solution at pH 3 (16.5% w/v AgNO3 in acetonitrile/water; 6:4, v/v), in order to release the anthracyclines from a complex with DNA and to precipitate the proteins. After addition of an internal standard (epirubicin) and centrifugation, the supernatant was applied directly to the HPLC column.

SMILES: COc1cccc2c1C(=O)c1c(O)c3c(c(O)c1C2=O)C[C@@](O)(C(=O)CO)C[C@@H]3O[C@H]1C[C@H](N)[C@H](O)[C@H](C)O1 [free doxorubicin, doxorubicin]
- cardiac toxicity [1]: high cardiac toxicity
- concentration at 1 h (in vivo [2]): 500 ng/mL
- remaining at 1 h (in vivo [3]): 23%
